# Measurements reported in patent publication US10294202B2, “Pyrrolidinones as herbicides” (FMC Corporation, priority 2013, dated 2019).
# Assays:
# sedge, umbrella = test: Test B flooded paddy test; format: in vivo, Cyperus difformis; conditions: Flood, scale of 0 to 100 where 0 is no effect and 100 is complete control
# How it was run: (§1)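 First, plants reach the 2-leaf stage; next, pots are flooded to 3 cm and compound is delivered into the water; finally, after 13 to 15 greenhouse days at constant depth, injury is graded visually from 0 to 100 against controls.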
# giant foxtail = test: Test A pre-/postemergence herbicide test; format: in vivo, Setaria faberii; conditions: for Foxtail, Giant plant response rating: visual rating on 0 to 100 scale (0 no effect, 100 complete control)
# How it was run: (§2)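 Seeds sown in loam soil/sand blend received a preemergence directed soil spray of test chemical in non-phytotoxic solvent with surfactant; postemergence plants (2–10 cm, one- to two-leaf stage) were sprayed with the same formulation. After about 10 days in greenhouse, injury was rated visually versus untreated controls, 0 (no effect) to 100 (complete control).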
# velvetleaf = test: Test A pre-/postemergence herbicide test; format: in vivo, Abutilon theophrasti; conditions: for Velvetleaf plant response rating: visual rating on 0 to 100 scale (0 no effect, 100 complete control)
# How it was run: as §2
# morningglory = test: Test A pre-/postemergence herbicide test; format: in vivo, Ipomoea spp.; conditions: for Morningglory plant response rating: visual rating on 0 to 100 scale (0 no effect, 100 complete control)
# How it was run: as §2
# pigweed = test: Test A pre-/postemergence herbicide test; format: in vivo, Amaranthus retroflexus; conditions: for Pigweed plant response rating: visual rating on 0 to 100 scale (0 no effect, 100 complete control)
# How it was run: as §2
# crabgrass, large = test: Test A pre-/postemergence herbicide test; format: in vivo, Digitaria sanguinalis; conditions: for Crabgrass, Large plant response rating: visual rating on 0 to 100 scale (0 no effect, 100 complete control)
# How it was run: as §2
# ducksalad = test: Test B flooded paddy test; format: in vivo, Heteranthera limosa; conditions: Flood, scale of 0 to 100 where 0 is no effect and 100 is complete control
# How it was run: as §1
# rice = test: Test B flooded paddy test; format: in vivo, Oryza sativa; conditions: Flood, scale of 0 to 100 where 0 is no effect and 100 is complete control
# How it was run: as §1
# corn = test: Test A pre-/postemergence herbicide test; format: in vivo, Zea mays; conditions: for Corn plant response rating: visual rating on 0 to 100 scale (0 no effect, 100 complete control)
# How it was run: as §2
# wheat = test: Test A pre-/postemergence herbicide test; format: in vivo, Triticum aestivum; conditions: for Wheat plant response rating: visual rating on 0 to 100 scale (0 no effect, 100 complete control)
# How it was run: as §2
# barnyardgrass [1] = test: Test A pre-/postemergence herbicide test; format: in vivo, Echinochloa crus-galli; conditions: for Barnyardgrass plant response rating: visual rating on 0 to 100 scale (0 no effect, 100 complete control)
# How it was run: as §2
# barnyardgrass [2] = test: Test B flooded paddy test; format: in vivo, Echinochloa crus-galli; conditions: Flood, scale of 0 to 100 where 0 is no effect and 100 is complete control
# How it was run: as §1
# [3] = Postemergence, 1000 g ai/ha, 0 to 100 scale (0 no effect, 100 complete control)
# [4] = preemergence, 1000 g ai/ha, 0 to 100 scale
# [5] = Postemergence, 125 g ai/ha, 0 to 100 scale, 0 no effect, 100 complete control
# [6] = Postemergence, 500 g ai/ha, 0 to 100 scale (0 no effect, 100 complete control)
# [7] = preemergence, 500 g ai/ha, 0 to 100 scale
# [8] = preemergence, 500 g ai/ha, 0 to 100 scale (0 no effect, 100 complete control)
# [9] = Postemergence, 125 g ai/ha, 0 to 100 scale, 0 is no effect, 100 is complete control
# [10] = Preemergence, 125 g ai/ha, 0 to 100 scale where 0 is no effect and 100 is complete control
# [11] = preemergence, 500 g ai/ha, 0 to 100 scale, 0 is no effect and 100 is complete control
smiles,measurement,setting,value
CON(C(=O)C1C(=O)NCC1c1ccc(F)c(F)c1)c1ccccc1[N+](=O)[O-] (stereo not drawn) [Compound 243],"Plant response rating, Sedge, Umbrella","sedge, umbrella; 250 g ai/ha",0
same,"Plant response rating, Foxtail, Giant",giant foxtail; [3],20
same,"Plant response rating, Foxtail, Giant",giant foxtail; [4],90
same,"Plant response rating, Velvetleaf",velvetleaf; [3],0
same,"Plant response rating, Velvetleaf",velvetleaf; [4],0
same,"Plant response rating, Morningglory",morningglory; [3],0
same,"Plant response rating, Morningglory",morningglory; [4],0
same,"Plant response rating, Pigweed",pigweed; [3],0
same,"Plant response rating, Pigweed",pigweed; [4],0
same,"Plant response rating, Crabgrass, Large","crabgrass, large; [3]",0
same,"Plant response rating, Crabgrass, Large","crabgrass, large; [4]",90
same,"Plant response rating, Ducksalad",ducksalad; 250 g ai/ha,0
same,"Plant response rating, Rice",rice; 250 g ai/ha,0
same,"Plant response rating, Corn",corn; [3],0
same,"Plant response rating, Corn",corn; [4],0
same,"Plant response rating, Wheat",wheat; [3],0
same,"Plant response rating, Wheat",wheat; [4],0
same,"Plant response rating, Barnyardgrass",barnyardgrass [1]; [3],60
same,"Plant response rating, Barnyardgrass","barnyardgrass [1]; preemergence, 1000 g ai/ha, 0 to 100 scale (0 no effect, 100 complete control)",80
same,"Plant response rating, Barnyardgrass",barnyardgrass [2]; 250 g ai/ha,0
COc1ncccc1NC(=O)C1C(=O)NCC1c1ccc(F)c(F)c1 (stereo not drawn) [Compound 46],"Plant response rating, Sedge, Umbrella","sedge, umbrella; 250 g ai/ha",0
same,"Plant response rating, Foxtail, Giant",giant foxtail; [5],0
same,"Plant response rating, Foxtail, Giant",giant foxtail; [6],40
same,"Foxtail, Giant plant response rating","giant foxtail; Preemergence, 125 g ai/ha",40
same,"Plant response rating, Foxtail, Giant",giant foxtail; [7],80
same,"Plant response rating, Velvetleaf",velvetleaf; [5],0
same,"Plant response rating, Velvetleaf",velvetleaf; [6],0
same,Velvetleaf plant response rating,"velvetleaf; Preemergence, 125 g ai/ha",0
same,"Plant response rating, Velvetleaf",velvetleaf; [7],0
same,"Plant response rating, Morningglory",morningglory; [5],0
same,"Plant response rating, Morningglory",morningglory; [6],0
same,Morningglory plant response rating,"morningglory; Preemergence, 125 g ai/ha",0
same,"Plant response rating, Morningglory",morningglory; [7],0
same,"Plant response rating, Pigweed",pigweed; [5],0
same,"Plant response rating, Pigweed",pigweed; [6],0
same,Pigweed plant response rating,"pigweed; Preemergence, 125 g ai/ha",0
same,"Plant response rating, Pigweed",pigweed; [7],0
same,"Plant response rating, Crabgrass, Large","crabgrass, large; [5]",30
same,"Plant response rating, Crabgrass, Large","crabgrass, large; [6]",60
same,"Crabgrass, Large plant response rating","crabgrass, large; Preemergence, 125 g ai/ha",70
same,"Plant response rating, Crabgrass, Large","crabgrass, large; [7]",90
same,"Plant response rating, Ducksalad",ducksalad; 250 g ai/ha,0
same,"Plant response rating, Rice",rice; 250 g ai/ha,0
same,Corn plant response rating,"corn; Preemergence, 125 g ai/ha",0
same,"Plant response rating, Corn",corn; [7],0
same,"Plant response rating, Wheat",wheat; [5],0
same,"Plant response rating, Wheat",wheat; [6],0
same,Wheat plant response rating,"wheat; Preemergence, 125 g ai/ha",0
same,"Plant response rating, Wheat",wheat; [7],0
same,"Plant response rating, Barnyardgrass",barnyardgrass [1]; [5],0
same,"Plant response rating, Barnyardgrass",barnyardgrass [1]; [6],0
same,Barnyardgrass plant response rating,"barnyardgrass [1]; Preemergence, 125 g ai/ha",0
same,"Plant response rating, Barnyardgrass",barnyardgrass [1]; [8],50
same,"Plant response rating, Barnyardgrass",barnyardgrass [2]; 250 g ai/ha,0
O=C1NCC(c2ccc(C(F)(F)F)c(Cl)c2)C1C(=O)Nc1ccccc1F (racemic) [Compound 249],"Plant response rating, Sedge, Umbrella","sedge, umbrella; 1000 g ai/ha",40
same,"Plant response rating, Foxtail, Giant",giant foxtail; [9],20
same,"Plant response rating, Foxtail, Giant",giant foxtail; [6],40
same,"Plant response rating, Foxtail, Giant",giant foxtail; [10],50
same,"Plant response rating, Foxtail, Giant",giant foxtail; [11],90
same,"Plant response rating, Velvetleaf",velvetleaf; [9],0
same,"Plant response rating, Velvetleaf",velvetleaf; [6],0
same,"Plant response rating, Velvetleaf",velvetleaf; [10],0
same,"Plant response rating, Velvetleaf",velvetleaf; [11],0
same,"Plant response rating, Morningglory",morningglory; [9],0
same,"Plant response rating, Morningglory",morningglory; [6],0
same,"Plant response rating, Morningglory",morningglory; [10],0
same,"Plant response rating, Morningglory",morningglory; [11],0
same,"Plant response rating, Pigweed",pigweed; [9],0
same,"Plant response rating, Pigweed",pigweed; [6],0
same,"Plant response rating, Pigweed",pigweed; [10],0
same,"Plant response rating, Pigweed",pigweed; [11],0
same,"Plant response rating, Crabgrass, Large","crabgrass, large; [9]",0
same,"Plant response rating, Crabgrass, Large","crabgrass, large; [6]",40
same,"Plant response rating, Crabgrass, Large","crabgrass, large; [10]",80
same,"Plant response rating, Crabgrass, Large","crabgrass, large; [11]",90
same,"Plant response rating, Ducksalad",ducksalad; 1000 g ai/ha,85
same,"Plant response rating, Rice",rice; 1000 g ai/ha,15
same,"Plant response rating, Corn",corn; [9],0
same,"Plant response rating, Corn",corn; [6],0
same,"Plant response rating, Corn",corn; [10],0
same,"Plant response rating, Corn",corn; [11],0
same,"Plant response rating, Wheat",wheat; [9],0
same,"Plant response rating, Wheat",wheat; [6],0
same,"Plant response rating, Wheat",wheat; [10],0
same,"Plant response rating, Wheat",wheat; [11],0
same,"Plant response rating, Barnyardgrass",barnyardgrass [1]; [9],30
same,"Plant response rating, Barnyardgrass",barnyardgrass [1]; [6],50
same,"Plant response rating, Barnyardgrass",barnyardgrass [1]; [10],50
same,"Plant response rating, Barnyardgrass",barnyardgrass [1]; [11],80
same,"Plant response rating, Barnyardgrass",barnyardgrass [2]; 1000 g ai/ha,55
O=C1NCC(c2ccc(F)c(F)c2)C1C(=O)Nc1ccccc1Br (stereo not drawn) [Compound 55],"Plant response rating, Sedge, Umbrella","sedge, umbrella; 250 g ai/ha",70
same,"Plant response rating, Foxtail, Giant",giant foxtail; [5],70
same,"Plant response rating, Foxtail, Giant",giant foxtail; [6],80
same,"Foxtail, Giant plant response rating","giant foxtail; Preemergence, 125 g ai/ha",70
same,"Plant response rating, Foxtail, Giant",giant foxtail; [7],90
same,"Plant response rating, Velvetleaf",velvetleaf; [5],0
same,"Plant response rating, Velvetleaf",velvetleaf; [6],0
same,Velvetleaf plant response rating,"velvetleaf; Preemergence, 125 g ai/ha",0
same,"Plant response rating, Velvetleaf",velvetleaf; [7],0
same,"Plant response rating, Morningglory",morningglory; [5],0
same,"Plant response rating, Morningglory",morningglory; [6],0
same,Morningglory plant response rating,"morningglory; Preemergence, 125 g ai/ha",0
same,"Plant response rating, Morningglory",morningglory; [7],0
same,"Plant response rating, Pigweed",pigweed; [5],0
same,"Plant response rating, Pigweed",pigweed; [6],0
same,Pigweed plant response rating,"pigweed; Preemergence, 125 g ai/ha",0
same,"Plant response rating, Pigweed",pigweed; [7],0
same,"Plant response rating, Crabgrass, Large","crabgrass, large; [5]",80
same,"Plant response rating, Crabgrass, Large","crabgrass, large; [6]",80
same,"Crabgrass, Large plant response rating","crabgrass, large; Preemergence, 125 g ai/ha",80
same,"Plant response rating, Crabgrass, Large","crabgrass, large; [7]",90
same,"Plant response rating, Ducksalad",ducksalad; 250 g ai/ha,75
same,"Plant response rating, Rice",rice; 250 g ai/ha,50
same,"Plant response rating, Corn",corn; [5],0
same,"Plant response rating, Corn",corn; [6],0
same,Corn plant response rating,"corn; Preemergence, 125 g ai/ha",0
same,"Plant response rating, Corn",corn; [7],0
same,"Plant response rating, Wheat",wheat; [5],0
same,"Plant response rating, Wheat",wheat; [6],0
same,Wheat plant response rating,"wheat; Preemergence, 125 g ai/ha",0
same,"Plant response rating, Wheat",wheat; [7],0
same,"Plant response rating, Barnyardgrass",barnyardgrass [1]; [5],30
same,"Plant response rating, Barnyardgrass",barnyardgrass [1]; [6],90
same,Barnyardgrass plant response rating,"barnyardgrass [1]; Preemergence, 125 g ai/ha",20
same,"Plant response rating, Barnyardgrass",barnyardgrass [1]; [8],80
same,"Plant response rating, Barnyardgrass",barnyardgrass [2]; 250 g ai/ha,50
